Results reported in patent US9512107B2, “Therapeutically active compositions and their methods of use” (Agios Pharmaceuticals, Inc., priority 2012, dated 2016).
Positions count from the first letter of the chain named. Where two headings read alike, the source gives them in different places.

Columns and labels:
IDH2 R140Q = target: T1, IDH2 R140Q (Homo sapiens, UniProt P48735, R140Q); experiment: IDH2 R140Q enzymatic assay (cofactor depletion, similar format); assay type: biochemical; conditions: read-out: Enz R140Q
T1 sequence (P48735 40-452 R140Q): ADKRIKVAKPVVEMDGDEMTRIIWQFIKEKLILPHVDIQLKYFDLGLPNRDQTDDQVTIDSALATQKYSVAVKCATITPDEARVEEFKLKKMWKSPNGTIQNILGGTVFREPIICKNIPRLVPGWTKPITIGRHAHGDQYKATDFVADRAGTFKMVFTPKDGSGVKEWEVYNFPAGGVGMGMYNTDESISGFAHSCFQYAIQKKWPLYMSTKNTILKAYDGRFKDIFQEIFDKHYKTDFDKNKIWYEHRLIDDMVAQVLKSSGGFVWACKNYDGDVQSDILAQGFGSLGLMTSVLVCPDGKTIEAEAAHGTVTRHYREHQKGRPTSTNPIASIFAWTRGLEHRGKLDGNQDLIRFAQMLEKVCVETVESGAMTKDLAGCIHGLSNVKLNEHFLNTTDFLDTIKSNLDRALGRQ

IDH2 R172K = target: T2, IDH2 R172K (Homo sapiens, UniProt P48735, R172K); experiment: IDH2 R172K enzymatic assay (NADPH cofactor depletion, diaphorase/resazurin readout); assay type: biochemical; conditions: read-out: Enz R172K
T2 sequence (P48735 40-452 R172K): T1 sequence (P48735 40-452 R140Q) with Q101R, R133K
Procedure: Compounds are assayed for IDH2 R172K inhibitory activity through a cofactor depletion assay. […] The reaction is terminated by the addition of a second enzyme, diaphorase, and a corresponding substrate, resazurin. Diaphorase reduces resazurin to the highly fluorescent resorufin with the concomitant oxidation of NADPH to NADP, both halting the IDH2 reaction by depleting the available cofactor pool and facilitating quantitation of the amount of cofactor remaining after a specific time period through quantitative production of an easily detected fluorophore.
The test compound is then incubated for one hour at room temperature with the enzyme; before starting the IDH2 reaction with the addition of 10 μl of substrate mix containing 50 μM NADPH and 6.3 mM α-KG in the buffer described above. After a further one hour of incubation at room temperature, the reaction is halted and the remaining NADPH measured through conversion of resazurin to resorufin by the addition of 25 μl Stop Mix (36 μg/ml diaphorase enzyme and 60 μM resazurin; in buffer).

[1] = system: U87MG pLVX-IDH2 R140Q-neo cells; experiment: U87MG pLVX-IDH2 R140Q-neo cell based assay, 2-HG in media by LC-MS at 48 hours
Summary of the method: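 U87MG cells stably expressing IDH2 R140Q were seeded overnight, then exposed to compound at 0.2% final DMSO at 37 °C, 5% CO2. 2-HG in the medium was quantified by LC-MS at 48 h. Growth inhibition was read by CellTiter-Glo luminescence at 72 h.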

Row | IC50 (IDH2 R140Q) | IC50 (IDH2 R172K) | IC50 ([1]; Homo sapiens, U-87 MG) | IC50 [1] | SMILES
1 | < 0.1 µM | < 0.1 µM | < 0.1 µM |  | CC(C)Nc1nc(Nc2ccccc2)nc(-c2ccccc2)n1 [Compound 100]
2 | 0.1 to 1 µM | 1 to 10 µM | 1 to 10 µM |  | CC(C)Nc1nc(Cc2ccccc2)nc(Nc2ccccc2)n1 [Compound 103]
3 | 0.1 to 1 µM | 1 to 10 µM | 1 to 10 µM |  | CC(C)Nc1nc(Nc2ccccc2)nc(-c2ccccc2NS(C)(=O)=O)n1 [Compound 109]
4 | < 0.1 µM | 0.1 to 1 µM | < 0.1 µM |  | c1ccc(Nc2nc(NC3CC3)nc(-c3ccccc3)n2)cc1 [Compound 110]
5 | < 0.1 µM | < 0.1 µM | < 0.1 µM |  | c1ccc(Nc2nc(NCC3CC3)nc(-c3ccccc3)n2)cc1 [Compound 111]
6 | < 0.1 µM | 0.1 to 1 µM | 0.1 to 1 µM |  | CC(C)(C)Nc1nc(Nc2ccccc2)nc(-c2ccccc2)n1 [Compound 112]
7 | < 0.1 µM | 0.1 to 1 µM | < 0.1 µM |  | c1ccc(Nc2nc(NC3CCCCC3)nc(-c3ccccc3)n2)cc1 [Compound 113]
8 | 0.1 to 1 µM | 1 to 10 µM | 1 to 10 µM |  | CC(C)Nc1nc(Nc2ccccc2)nc(-c2cccnc2)n1 [Compound 114]
9 | < 0.1 µM | 0.1 to 1 µM | 0.1 to 1 µM |  | COc1cccc(-c2nc(Nc3ccccc3)nc(NC(C)C)n2)c1 [Compound 115]
10 | 0.1 to 1 µM | 1 to 10 µM |  |  | COc1ccc(-c2nc(Nc3ccccc3)nc(NC(C)C)n2)cc1 [Compound 116]
11 | 0.1 to 1 µM | 1 to 10 µM |  |  | Cc1cccc(C)c1-c1nc(Nc2ccccc2)nc(NC(C)C)n1 [Compound 117]
12 | < 0.1 µM | 0.1 to 1 µM | 0.1 to 1 µM |  | CC(C)Nc1nc(Nc2ccccc2)nc(-c2ccc(F)cc2F)n1 [Compound 118]
13 | 0.1 to 1 µM | > 10 µM |  |  | CC(C)Nc1nc(Nc2ccc(O)cc2)nc(-c2ccccc2)n1 [Compound 133]
14 | 0.1 to 1 µM | 1 to 10 µM |  |  | CC(C)Nc1nc(NC2CCOCC2)nc(-c2ccccc2)n1 [Compound 137]
15 | 0.1 to 1 µM | 1 to 10 µM |  |  | CC(C)Nc1nc(Nc2ccccc2C#N)nc(-c2ccccc2)n1 [Compound 165]
16 | < 0.1 µM | 1 to 10 µM |  |  | c1ccc(-c2nc(Nc3ccncc3)nc(NC3CC3)n2)cc1 [Compound 217, N^2-cyclopropyl-6-phenyl-N^4-(pyridin-4-yl)-1,3,5-triazine-2,4-diamine]

Row | IC50 (IDH2 R140Q) | IC50 (IDH2 R172K) | IC50 ([1]; Homo sapiens, U-87 MG) | IC50 [1] | SMILES
17 | 0.1 to 1 µM | 1 to 10 µM |  |  | O=C(Nc1nc(Nc2ccccc2)nc(-c2ccccc2)n1)C1CCCO1 (centres unmarked) [Compound 243, N-(4-phenyl-6-(phenylamino)-1,3,5-triazin-2-yl)tetrahydrofuran-2-carboxamide]
18 | 0.1 to 1 µM | 1 to 10 µM |  |  | COC(C)(C)CNc1nc(Nc2ccncc2)nc(-c2ccccc2)n1 [Compound 252, N^2-(2-methoxy-2-methylpropyl)-6-phenyl-N^4-(pyridin-4-yl)-1,3,5-triazine-2,4-diamine]
19 | 0.1 to 1 µM |  | < 0.1 µM |  | N#Cc1cc(Nc2nc(NCC3CCCO3)nc(-c3cccc(C(F)(F)F)n3)n2)ccn1 (centres unmarked) [Compound 403, 4-(4-((tetrahydrofuran-2-yl)methylamino)-6-(6-(trifluoromethyl)pyridin-2-yl)-1,3,5-triazin-2-ylamino)picolinonitrile]
20 | 0.1 to 1 µM |  | < 0.1 µM |  | CC(C)Nc1nc(Nc2ccnc(C#N)c2)nc(-c2cccc(C(F)(F)F)n2)n1 [Compound 404, 4-(4-(isopropylamino)-6-(6-(trifluoromethyl)pyridin-2-yl)-1,3,5-triazin-2-ylamino)picolinonitrile]
21 | 0.1 to 1 µM |  | < 0.1 µM |  | CC(C)(O)CNc1nc(Nc2cncc(C(F)(F)F)c2)nc(-c2cccc(C(F)(F)F)n2)n1 [Compound 406, 2-methyl-1-(4-(6-(trifluoromethyl)pyridin-2-yl)-6-(5-(trifluoromethyl)pyridin-3-ylamino)-1,3,5-triazin-2-ylamino)propan-2-ol]
22 | 0.1 to 1 µM |  | 0.1 to 1 µM |  | CC(C)(O)CNc1nc(Nc2cncc(F)c2)nc(-c2cccc(C(F)(F)F)n2)n1 [Compound 407, 1-(4-(5-fluoropyridin-3-ylamino)-6-(6-(trifluoromethyl)pyridin-2-yl)-1,3,5-triazin-2-ylamino)-2-methylpropan-2-ol]
23 | > 10 µM |  | 0.1 to 1 µM |  | Fc1ccc(Nc2nc(NC3COC3)nc(-c3cccc(Cl)n3)n2)cn1 [Compound 410, 6-(6-chloropyridin-2-yl)-N^2-(6-fluoropyridin-3-yl)-N^4-(oxetan-3-yl)-1,3,5-triazine-2,4-diamine]
24 | 1 to 10 µM |  | < 0.1 µM |  | Fc1cncc(Nc2nc(NC3C4COCC43)nc(-c3cccc(C(F)(F)F)n3)n2)c1 (centres unmarked) [Compound 411, N^2-(3-oxabicyclo[3.1.0]hexan-6-yl)-N^4-(5-fluoropyridin-3-yl)-6-(6-(trifluoromethyl)pyridin-2-yl)-1,3,5-triazine-2,4-diamine]
25 | 0.1 to 1 µM |  | 0.1 to 1 µM |  | O=C(Nc1nc(Nc2ccccc2)nc(-c2ccccc2)n1)c1ccc[nH]1 [Compound 414, 1H-Pyrrole-2-carboxylic acid (4-phenyl-6-phenylamino-[1,3,5]triazin-2-yl)-amide]
26 | 0.1 to 1 µM |  |  | < 0.1 µM | COC(=O)c1cc(Nc2nc(NC(C)C)nc(-c3ccccc3)n2)ccn1 [Compound 450, methyl 4-((4-(isopropylamino)-6-phenyl-1,3,5-triazin-2-yl)amino)picolinate]
27 |  | 0.1 to 1 µM | 0.1 to 1 µM |  | COc1cc(Cl)cc(-c2nc(Nc3cc(F)cc(F)c3)nc(NC(C)C)n2)n1 [Compound 486, 6-(4-chloro-6-methoxypyridin-2-yl)-N^2-(3,5-difluorophenyl)-N^4-isopropyl-1,3,5-triazine-2,4-diamine]
28 | 0.1 to 1 µM | 1 to 10 µM |  |  | CC(C)Nc1nc(Nc2ccnc(C(F)(F)F)c2)nc(-c2cc(Cl)cc(C(F)(F)F)c2)n1 [Compound 644, 6-(3-Chloro-5-trifluoromethyl-phenyl)-N-isopropyl-N′-(2-trifluoromethyl-pyridin-4-yl)-[1,3,5]triazine-2,4-diamine]
29 | 0.1 to 1 µM |  | 1 to 10 µM |  | CC(C)Nc1nc(Nc2cccc(S(C)(=O)=O)c2)nc(-c2cc(F)cc(C(F)(F)F)c2)n1 [Compound 660, 6-(3-fluoro-5-(trifluoromethyl)phenyl)-N2-isopropyl-N4-(3-(methylsulfonyl)phenyl)-1,3,5-triazine-2,4-diamine]
30 |  | 1 to 10 µM | 0.1 to 1 µM |  | COc1cc(F)cc(-c2nc(Nc3ccnc(C(F)(F)F)c3)nc(NC(C)C)n2)c1 [Compound 662, 6-(3-fluoro-5-methoxyphenyl)-N2-isopropyl-N4-(2-(trifluoromethyl)pyridin-4-yl)-1,3,5-triazine-2,4-diamine]
31 |  | < 0.1 µM | < 0.1 µM |  | CC(C)Nc1nc(Nc2ccnc(C(F)(F)F)c2)nc(-c2cccc(C(C)O)c2)n1 (centres unmarked) [Compound 663, 1-(3-(4-(isopropylamino)-6-((2-(trifluoromethyl)pyridin-4-yl)amino)-1,3,5-triazin-2-yl)phenyl)ethanol]
32 |  | < 0.1 µM | < 0.1 µM |  | CC(C)Nc1nc(Nc2ccnc(C(F)(F)F)c2)nc(-c2cc(O)cc(CO)c2)n1 [Compound 665, 3-(hydroxymethyl)-5-(4-(isopropylamino)-6-((2-(trifluoromethyl)pyridin-4-yl)amino)-1,3,5-triazin-2-yl)phenol]
